Assay results from patent US20200392158A1, “INHIBITORS OF LEUCINE RICH REPEAT KINASE 2” (GLAXOSMITHKLINE INTELLECTUAL PROPERTY DEVELOPMENT LIMITED, priority 2017, published 2020).

How the values were obtained:
[1] = biological target: T1, full length G2019 human LRRK2 (Homo sapiens, UniProt Q5S007, R50H); assay: Full length G2019 human LRRK2 inhibition mass spectrometry assay; format: biochemical; details: LRRKtide to phospho-LRRKtide conversion, RapidFire MS, 2 mM ATP
T1 construct: made in house; host or cells: HEK293 6E cells transduced with BacMam virus (virus generated in Sf9 cells)
Method in brief: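 Purified full-length Flag-tagged G2019 LRRK2, ~25 nM, with 25 μM LRRKtide and 2 mM ATP in 50 mM Hepes pH 7.2, 10 mM MgCl2, 150 mM NaCl, 1 h at room temperature. Quenched with formic acid; phospho- and unphosphorylated LRRKtide measured by RapidFire MS. pIC50 from 4-parameter fit of % conversion, 11 points, top 100 μM.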

[2] = biological target: T2, LRRK2 kinase in SH-SY5Y cells over-expressing recombinant full length LRRK2 (Homo sapiens, UniProt Q5S007); assay: Recombinant cellular LRRK2 AlphaScreen assay (LRRK2 Ser935 phosphorylation); format: cell-based; details: 60 min
T2 construct: A BacMam virus expressing full length recombinant LRRK2 was purchased from Invitrogen; host or cells: SH-SY5Y human neuroblastoma cells transduced with BacMam LRRK2 virus
Method in brief: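 SH-SY5Y cells transduced with BacMam full-length LRRK2 (MOI 50) for 24 h, then treated 60 min at 37 °C with compound (11-point 1:4 series, top 10 uM, 0.1% DMSO). Lysates probed by AlphaScreen for pSer935 vs total LRRK2; values fitted to a sigmoidal dose-response model.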

T1 sequence (Q5S007 with tags, fused parts or gaps R50H): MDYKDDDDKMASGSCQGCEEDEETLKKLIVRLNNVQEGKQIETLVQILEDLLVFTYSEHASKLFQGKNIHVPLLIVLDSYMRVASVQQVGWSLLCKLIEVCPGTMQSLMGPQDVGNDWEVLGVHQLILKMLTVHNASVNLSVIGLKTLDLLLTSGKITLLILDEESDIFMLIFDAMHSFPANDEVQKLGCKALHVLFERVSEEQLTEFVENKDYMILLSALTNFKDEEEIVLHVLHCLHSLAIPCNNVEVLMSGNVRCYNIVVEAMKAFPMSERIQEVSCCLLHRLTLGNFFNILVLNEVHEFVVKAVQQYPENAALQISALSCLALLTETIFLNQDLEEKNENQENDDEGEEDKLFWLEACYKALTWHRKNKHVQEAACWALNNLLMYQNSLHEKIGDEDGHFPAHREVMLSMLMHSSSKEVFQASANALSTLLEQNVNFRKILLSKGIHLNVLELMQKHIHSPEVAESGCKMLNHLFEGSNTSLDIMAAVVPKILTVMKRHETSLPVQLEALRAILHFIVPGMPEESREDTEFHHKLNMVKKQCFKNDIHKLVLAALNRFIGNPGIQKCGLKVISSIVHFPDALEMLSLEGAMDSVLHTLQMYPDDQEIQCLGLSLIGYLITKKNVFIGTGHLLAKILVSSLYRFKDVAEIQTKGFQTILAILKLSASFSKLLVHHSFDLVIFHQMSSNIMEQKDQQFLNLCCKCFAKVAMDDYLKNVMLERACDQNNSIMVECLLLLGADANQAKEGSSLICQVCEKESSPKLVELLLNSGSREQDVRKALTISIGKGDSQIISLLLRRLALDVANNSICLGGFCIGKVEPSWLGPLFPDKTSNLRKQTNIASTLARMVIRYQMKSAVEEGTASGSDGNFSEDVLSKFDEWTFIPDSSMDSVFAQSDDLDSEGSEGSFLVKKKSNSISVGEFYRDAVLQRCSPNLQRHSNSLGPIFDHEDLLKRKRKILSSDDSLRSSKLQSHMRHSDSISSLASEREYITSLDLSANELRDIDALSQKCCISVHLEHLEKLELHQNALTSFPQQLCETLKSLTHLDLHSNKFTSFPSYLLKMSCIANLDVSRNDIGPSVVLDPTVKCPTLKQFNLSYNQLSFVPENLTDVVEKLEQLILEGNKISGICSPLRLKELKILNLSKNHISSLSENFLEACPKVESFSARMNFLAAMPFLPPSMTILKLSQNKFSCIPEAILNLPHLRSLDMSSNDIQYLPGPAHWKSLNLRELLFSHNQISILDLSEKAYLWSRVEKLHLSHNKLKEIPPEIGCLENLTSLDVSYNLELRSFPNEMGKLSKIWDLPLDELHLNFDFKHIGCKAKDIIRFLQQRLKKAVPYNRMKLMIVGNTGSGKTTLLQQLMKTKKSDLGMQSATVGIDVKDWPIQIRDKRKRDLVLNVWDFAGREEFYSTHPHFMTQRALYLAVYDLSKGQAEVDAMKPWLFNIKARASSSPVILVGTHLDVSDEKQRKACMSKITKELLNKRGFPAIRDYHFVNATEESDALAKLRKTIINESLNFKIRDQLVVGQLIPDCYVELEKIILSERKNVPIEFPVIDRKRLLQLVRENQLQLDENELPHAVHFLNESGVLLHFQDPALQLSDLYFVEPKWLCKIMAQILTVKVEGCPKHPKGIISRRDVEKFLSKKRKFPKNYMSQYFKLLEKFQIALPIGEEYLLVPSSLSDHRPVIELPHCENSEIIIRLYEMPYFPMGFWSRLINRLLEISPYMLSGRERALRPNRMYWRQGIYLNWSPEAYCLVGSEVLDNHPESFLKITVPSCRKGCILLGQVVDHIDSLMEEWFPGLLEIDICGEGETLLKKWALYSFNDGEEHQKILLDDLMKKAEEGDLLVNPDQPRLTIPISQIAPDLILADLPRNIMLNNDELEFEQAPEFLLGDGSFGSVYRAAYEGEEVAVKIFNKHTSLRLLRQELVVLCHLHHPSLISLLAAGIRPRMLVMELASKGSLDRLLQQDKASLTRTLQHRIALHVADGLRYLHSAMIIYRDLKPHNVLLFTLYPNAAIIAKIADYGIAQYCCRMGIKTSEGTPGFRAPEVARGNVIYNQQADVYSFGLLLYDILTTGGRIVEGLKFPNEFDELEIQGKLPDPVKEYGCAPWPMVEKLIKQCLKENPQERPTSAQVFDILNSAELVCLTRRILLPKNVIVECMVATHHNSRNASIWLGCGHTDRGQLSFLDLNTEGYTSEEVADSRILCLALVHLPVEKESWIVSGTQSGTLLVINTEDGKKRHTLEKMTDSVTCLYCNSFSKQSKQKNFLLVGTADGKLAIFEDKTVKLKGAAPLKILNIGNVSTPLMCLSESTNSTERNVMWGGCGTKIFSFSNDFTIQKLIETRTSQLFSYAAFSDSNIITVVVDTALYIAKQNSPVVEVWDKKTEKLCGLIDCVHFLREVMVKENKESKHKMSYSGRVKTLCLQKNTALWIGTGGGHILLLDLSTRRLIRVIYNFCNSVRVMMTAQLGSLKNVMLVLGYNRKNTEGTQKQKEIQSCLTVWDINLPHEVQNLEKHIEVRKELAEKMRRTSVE
T2 sequence (Q5S007 whole entry): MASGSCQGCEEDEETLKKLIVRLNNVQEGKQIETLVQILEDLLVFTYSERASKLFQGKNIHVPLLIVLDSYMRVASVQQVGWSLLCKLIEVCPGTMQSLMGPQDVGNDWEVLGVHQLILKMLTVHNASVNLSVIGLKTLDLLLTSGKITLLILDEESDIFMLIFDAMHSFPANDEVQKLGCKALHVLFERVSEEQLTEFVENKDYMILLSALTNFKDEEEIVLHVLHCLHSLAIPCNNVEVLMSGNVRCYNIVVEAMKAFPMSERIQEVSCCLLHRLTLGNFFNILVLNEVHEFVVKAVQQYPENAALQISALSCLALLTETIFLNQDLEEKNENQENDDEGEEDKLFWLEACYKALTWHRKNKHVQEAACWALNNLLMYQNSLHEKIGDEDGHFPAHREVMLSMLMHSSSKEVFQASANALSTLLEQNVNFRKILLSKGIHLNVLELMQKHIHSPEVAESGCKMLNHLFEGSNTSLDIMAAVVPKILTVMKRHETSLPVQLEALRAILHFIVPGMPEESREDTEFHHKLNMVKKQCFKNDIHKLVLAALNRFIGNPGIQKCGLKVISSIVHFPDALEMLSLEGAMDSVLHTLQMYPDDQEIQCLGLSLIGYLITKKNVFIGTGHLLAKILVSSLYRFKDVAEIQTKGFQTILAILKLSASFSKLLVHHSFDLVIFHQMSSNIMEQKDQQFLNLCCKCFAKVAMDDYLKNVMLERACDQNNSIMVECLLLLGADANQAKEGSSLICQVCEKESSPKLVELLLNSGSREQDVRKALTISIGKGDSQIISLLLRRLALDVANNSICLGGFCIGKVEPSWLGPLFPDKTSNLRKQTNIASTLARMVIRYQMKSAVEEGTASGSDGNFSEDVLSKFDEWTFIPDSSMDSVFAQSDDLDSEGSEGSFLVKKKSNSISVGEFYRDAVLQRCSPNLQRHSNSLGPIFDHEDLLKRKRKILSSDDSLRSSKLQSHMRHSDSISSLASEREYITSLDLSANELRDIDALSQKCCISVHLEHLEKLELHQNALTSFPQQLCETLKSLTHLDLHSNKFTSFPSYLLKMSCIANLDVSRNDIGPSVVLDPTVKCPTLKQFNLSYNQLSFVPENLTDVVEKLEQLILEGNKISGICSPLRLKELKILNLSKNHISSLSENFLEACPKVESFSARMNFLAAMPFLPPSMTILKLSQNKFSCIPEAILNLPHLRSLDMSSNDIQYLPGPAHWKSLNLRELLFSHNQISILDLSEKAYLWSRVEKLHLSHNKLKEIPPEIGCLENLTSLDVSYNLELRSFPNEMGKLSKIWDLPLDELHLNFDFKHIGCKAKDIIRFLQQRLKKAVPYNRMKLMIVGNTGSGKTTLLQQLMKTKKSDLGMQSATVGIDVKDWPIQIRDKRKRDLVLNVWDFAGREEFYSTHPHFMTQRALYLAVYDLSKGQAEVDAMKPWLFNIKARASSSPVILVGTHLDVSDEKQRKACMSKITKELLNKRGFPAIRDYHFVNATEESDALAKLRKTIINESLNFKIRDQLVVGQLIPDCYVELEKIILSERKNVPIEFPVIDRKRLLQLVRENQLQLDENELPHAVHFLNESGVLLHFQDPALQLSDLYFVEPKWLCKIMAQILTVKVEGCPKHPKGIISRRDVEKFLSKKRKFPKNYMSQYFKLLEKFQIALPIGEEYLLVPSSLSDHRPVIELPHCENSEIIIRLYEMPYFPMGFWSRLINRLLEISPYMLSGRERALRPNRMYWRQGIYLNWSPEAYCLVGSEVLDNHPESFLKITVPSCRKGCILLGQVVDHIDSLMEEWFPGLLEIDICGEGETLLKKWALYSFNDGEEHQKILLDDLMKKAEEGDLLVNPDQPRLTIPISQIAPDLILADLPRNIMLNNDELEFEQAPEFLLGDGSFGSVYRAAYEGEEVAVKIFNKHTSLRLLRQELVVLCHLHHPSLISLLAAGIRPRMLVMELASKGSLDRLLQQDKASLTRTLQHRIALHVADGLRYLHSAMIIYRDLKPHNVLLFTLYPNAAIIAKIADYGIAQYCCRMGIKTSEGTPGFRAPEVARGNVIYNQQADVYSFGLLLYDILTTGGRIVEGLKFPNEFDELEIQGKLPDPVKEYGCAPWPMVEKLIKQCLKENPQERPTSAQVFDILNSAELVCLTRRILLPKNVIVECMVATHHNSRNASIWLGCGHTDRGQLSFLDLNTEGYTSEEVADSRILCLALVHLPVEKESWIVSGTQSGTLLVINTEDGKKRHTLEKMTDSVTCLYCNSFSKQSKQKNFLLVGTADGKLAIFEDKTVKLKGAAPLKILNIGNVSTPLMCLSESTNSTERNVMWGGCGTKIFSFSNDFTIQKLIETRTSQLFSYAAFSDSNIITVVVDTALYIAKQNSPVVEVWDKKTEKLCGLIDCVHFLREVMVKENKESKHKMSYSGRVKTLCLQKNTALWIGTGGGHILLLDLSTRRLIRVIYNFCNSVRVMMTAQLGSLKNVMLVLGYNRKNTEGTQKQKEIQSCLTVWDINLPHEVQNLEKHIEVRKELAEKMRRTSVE

| Compound | IC50 [1] | IC50 [2] |
| --- | --- | --- |
| COCC1CCOc2nn(C3CCOCC3)c(C)c2Nc2ncc(Cl)c(n2)N1 (single isomer, unassigned) [E35, 14-chloro-11-(methoxymethyl)-4-methyl-5-(oxan-4-yl)-8-oxa-2,5,6, 12,16,17-hexaazatricyclo-[11.3.1.0^3,7]heptadeca-1(16),3,6,13(17),14-pentaene] | ≤ 100 nM | ≤ 100 nM |
| Cc1c2c(nn1C1CCC(N3C[C@H]4C[C@@H]3CO4)CC1)OCCC(C)Nc1nc(ncc1Cl)N2 (single isomer, unassigned) [E57] | ≤ 100 nM | ≤ 100 nM |
| Cc1c2c(nn1C1CCOCC1)OCC(F)C(C)Nc1nc(ncc1Cl)N2 (single isomer, unassigned) [E64, 14-Chloro-10-fluoro-4,11-dimethyl-5-(oxan-4-yl)-8-oxa-2,5,6,12, 16,17-hexaazatricyclo[11.3.1.0^3,7]heptadeca-1(16),3,6,13(17),14-pentaene] | ≤ 100 nM | ≤ 100 nM |
| Cc1c2c(nn1C1CCCN(C3COC3)C1)OCC[C@@H](C)Nc1nc(ncc1Cl)N2 (single isomer, unassigned) [E67] | ≤ 100 nM | ≤ 100 nM |
| COC1CNc2nc(ncc2Cl)Nc2c(nn(C3CCOCC3F)c2C)OC1 (single isomer, unassigned) [E70, 14-Chloro-5-(3-fluorooxan-4-yl)-10-methoxy-4-methyl-8-oxa-2,5,6,12,16,17-hexaaza tricyclo[11.3.1.0^3,7]heptadeca-1(16),3,6,13(17),14-pentaene] | ≤ 100 nM | ≤ 100 nM |
| Cc1c2c(nn1C1CCOCC1)OCCC(C(F)F)Nc1nc(ncc1Cl)N2 (single isomer, unassigned) [E88, 14-chloro-11-(difluoromethyl)-4-methyl-5-(oxan-4-yl)-8-oxa-2,5,6, 12,16,17-hexaazatricyclo[11.3.1.0^3,7]heptadeca-1(16),3,6,13(17),14-pentaene] | ≤ 100 nM | ≤ 100 nM |
| Cc1c2c(nn1C1CCC(N3C[C@@H]4C[C@H]3CO4)CC1)OCCC(C)Nc1nc(ncc1Cl)N2 (single isomer, unassigned) [E104] | ≤ 100 nM | ≤ 100 nM |
| COC1CNc2nc(ncc2C(F)(F)F)Nc2c(nn(C3CCOCC3)c2C)OC1 (single isomer, unassigned) [E121, 10-methoxy-4-methyl-5-(oxan-4-yl)-14-(trifluoromethyl)-8-oxa-2,5,6,12,16,17-hexaazatricyclo[11.3.1.0^3,7] heptadeca-1(16),3,6,13(17),14-pentaene] | ≤ 100 nM | ≤ 100 nM |
| Cc1c2c(nn1C(C)C1CCOCC1)OCCC(C)Nc1nc(ncc1Cl)N2 (single isomer, unassigned) [E183, 14-Chloro-4,11-dimethyl-5-[1-(oxan-4-yl)ethyl]-8-oxa-2,5,6,12,16,17-hexaazatricyclo[11.3.1.0^3,7]heptadeca-1(16),3,6,13(17),14-pentaene] | ≤ 100 nM | ≤ 100 nM |
| Cc1c2c(nn1C1CCOCC1)OCCC(C(F)(F)F)Nc1nc(ncc1Cl)N2 (single isomer, unassigned) [E192, 14-Chloro-4-methyl-5-(oxan-4-yl)-11-(trifluoromethyl)-8-oxa-2,5,6,12,16,17-hexaazatricyclo[11.3.1.0^3,7] heptadeca-1(16),3,6,13(17),14-pentaene] | ≤ 100 nM | ≤ 100 nM |
| COC1CNc2nc(ncc2Cl)Nc2c(nn(C3CC(C)OC(C)C3)c2C)OC1 (single isomer, unassigned) [E198, 14-Chloro-5-(2,6-dimethyloxan-4-yl)-10-methoxy-4-methyl-8-oxa-2,5,6,12,16,17-hexaazatricyclo[11.3.1.0^3,7] heptadeca-1(16),3,6,13(17),14-pentaene] | ≤ 100 nM | ≤ 100 nM |
| Cc1c2c(nn1CCN1C[C@H]3C[C@@H]1CO3)OCCC(C)Nc1nc(ncc1Cl)N2 (single isomer, unassigned) [E208] | ≤ 100 nM | ≤ 100 nM |
| Cc1c2c(nn1CCN1CCOCC1)OCCC(C)Nc1nc(ncc1Cl)N2 (single isomer, unassigned) [E213, 14-Chloro-4,11-dimethyl-5-[2-(morpholin-4-yl)ethyl]-8-oxa-2,5,6,12,16,17-hexaazatricyclo[11.3.1.0^3,7] heptadeca-1(16),3,6,13(17),14-pentaene] | ≤ 100 nM | ≤ 100 nM |
| Cc1c2c(nn1CCN1CCC(F)(F)C1)OCCC(C)Nc1nc(ncc1Cl)N2 (single isomer, unassigned) [E215, 14-Chloro-5-[2-(3,3-difluoropyrrolidin-1-yl)ethyl]-4,11-dimethyl-8-oxa-2,5,6,12,16,17-hexaazatricyclo [11.3.1.0^3,7]heptadeca-1(16),3,6,13(17),14-pentaene] | ≤ 100 nM | ≤ 100 nM |
| Cc1c2c(nn1CCN1CCC(F)C1)OCCC(C)Nc1nc(ncc1Cl)N2 (single isomer, unassigned) [E218, 14-Chloro-5-[2-(3-fluoropyrrolidin-1-yl)ethyl]-4,11-dimethyl-8-oxa-2,5,6,12,16,17-hexaazatricyclo [11.3.1.0^3,7] heptadeca-1(16),3,6,13(17),14-pentaene] | ≤ 100 nM | ≤ 100 nM |

Results, then the compound that gave them:

| IC50 [1] | IC50 [2] | Compound |
| --- | --- | --- |
| ≤ 100 nM | ≤ 100 nM | Cc1c2c(nn1C1CCC(N3C[C@H]4C[C@@H]3CO4)CC1)OCCCNc1nc(ncc1Cl)N2 (single isomer, unassigned) [E48] |
| ≤ 100 nM | ≤ 100 nM | Cc1c2c(nn1C1CCOCC1)OCCC(CF)Nc1nc(ncc1Cl)N2 (single isomer, unassigned) [E54, 14-chloro-11-(fluoromethyl)-4-methyl-5-(oxan-4-yl)-8-oxa-2,5,6,12, 16,17-hexaazatricyclo[11.3.1.0^3,7]heptadeca-1(16),3,6,13(17),14-pentaene] |
| ≤ 100 nM | ≤ 100 nM | Cc1c2c(nn1C1CCN(C3COC3)CC1F)OCCCNc1nc(ncc1Cl)N2 (single isomer, unassigned) [E61, trans-14-chloro-5-[3-fluoro-1-(oxetan-3-yl)piperidin-4-yl]-4-methyl-8-oxa-2,5,6,12,16,17-hexaazatricyclo[11.3.1.0^3,7]heptadeca-1(16),3,6,13(17),14-pentaene] |
| ≤ 100 nM | ≤ 100 nM | Cc1c2c(nn1C1CCC(O)CC1)OCCCNc1nc(ncc1Cl)N2 (single isomer, unassigned) [E90, 4-{14-chloro-4-methyl-8-oxa-2,5,6,12,16,17-hexaazatricyclo[11.3.1.0^3,7]heptadeca-1(16),3,6,13(17),14-pentaen-5-yl}cyclohexan-1-ol] |
| ≤ 100 nM | ≤ 100 nM | Cc1c2c(nn1C1CCOC1)OCCCNc1nc(ncc1Cl)N2 (single isomer, unassigned) [E123, 14-chloro-4-methyl-5-(oxolan-3-yl)-8-oxa-2,5,6,12,16,17-hexaazatricyclo[11.3.1.0^3,7]heptadeca-1(16),3,6,13(17), 14-pentaene] |
| ≤ 100 nM | ≤ 100 nM | Cc1c2c(nn1C1CCOC1)OCCCNc1nc(ncc1C(F)(F)F)N2 (single isomer, unassigned) [E127, 4-methyl-5-(oxolan-3-yl)-14-(trifluoromethyl)-8-oxa-2,5,6,12,16,17-hexaazatricyclo[11.3.1.0^3,7]heptadeca-1(16),3,6,13(17),14-pentaene] |
| ≤ 100 nM | ≤ 100 nM | Cc1c2c(nn1C1CCOCC1)OCC(C)CNc1nc(ncc1Cl)N2 (single isomer, unassigned) [E136, 14-chloro-4,10-dimethyl-5-(oxan-4-yl)-8-oxa-2,5,6,12,16,17-hexaazatricyclo[11.3.1.0^3,7]heptadeca-1(16),3,6,13(17),14-pentaene] |
| ≤ 100 nM | ≤ 100 nM | Clc1cnc2nc1NCCCOc1nn(C3CCOC3)c(Cl)c1N2 (single isomer, unassigned) [E145, 4,14-Dichloro-5-(oxolan-3-yl)-8-oxa-2,5,6,12, 16,17-hexaaza tricyclo[11.3.1.0^3,7]heptadeca-1(16),3,6,13(17), 14-pentaene] |
| ≤ 100 nM | ≤ 100 nM | Cc1c2c(nn1C(C)C1CCOCC1)OCCCNc1nc(ncc1Cl)N2 (single isomer, unassigned) [E186, 14-Chloro-4-methyl-5-[1-(oxan-4-yl)ethyl]-8-oxa-2,5,6,12,16,17-hexaazatricyclo[11.3.1.0^3,7]heptadeca-1(16), 3,6,13(17),14-pentaene] |
| ≤ 100 nM | ≤ 100 nM | Cc1c2c(nn1C1CC3CCC(C1)O3)OCCCNc1nc(ncc1Cl)N2 (single isomer, unassigned) [E243, 14-Chloro-4-methyl-5-{8-oxabicyclo[3.2.1]octan-3-yl}-8-oxa-2,5,6,12,16,17-hexaazatricyclo[11.3.1.0^3,7] heptadeca-1(16),3,6,13(17),14-pentaene] |
| ≤ 100 nM | ≤ 100 nM | COC1CNc2nc(ncc2Cl)Nc2c(nn(C3CC4CCC(C3)O4)c2C)OC1 (single isomer, unassigned) [E245, 14-Chloro-10-methoxy-4-methyl-5-{8-oxabicyclo[3.2.1]octan-3-yl}-8-oxa-2,5,6,12,16,17-hexaazatricyclo [11.3.1.0^3,7]heptadeca-1(16),3,6,13(17),14-pentaene] |
| ≤ 100 nM | ≤ 100 nM | Cc1c2c(nn1C1CCC(C)CC1)OCCC(C)Nc1nc(ncc1Cl)N2 (single isomer, unassigned) [E259, 14-Chloro-4,11-dimethyl-5-(4-methylcyclohexyl)-8-oxa-2,5,6,12,16,17-hexaazatricyclo[11.3.1.0^3,7] heptadeca-1(16),3,6,13(17),14-pentaene] |
